According to ChEMBL document CHEMBL1201862, “PubChem BioAssay data set” (2004):
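Method: 48-hour compound exposure of cells in 96-well plates, five concentrations, linear interpolation of endpoints. Here, GI50 denotes the concentration required for 50% inhibition of growth.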 Active and inactive are the calls of the source. Rule as the data show it: active = GI50 up to about 1.1 µM and inactive = higher.

What was measured:
Assay in all cases: growth of human tumour cells (NCI), 48 h
786-0 = tested on: 786-0
A498 = tested on: A498
A549 = tested on: A549
ACHN = tested on: ACHN
BT-549 = tested on: BT-549
CAKI-1 = tested on: CAKI-1
CCRF-CEM = tested on: CCRF-CEM
COLO 205 = tested on: COLO 205
DU-145 = tested on: DU-145
EKVX = tested on: EKVX
HCC 2998 = tested on: HCC 2998
HCT-116 = tested on: HCT-116
HCT-15 = tested on: HCT-15
HOP-62 = tested on: HOP-62
HOP-92 = tested on: HOP-92
HT-29 = tested on: HT-29
Hs-578T = tested on: Hs-578T
K562 = tested on: K562
KM12 = tested on: KM12
LOX IMVI = tested on: LOX IMVI
M14 = tested on: M14
MCF7 = tested on: MCF7
MDA-MB-231 = tested on: MDA-MB-231
MDA-MB-435 = tested on: MDA-MB-435
MDA-N = tested on: MDA-N
MOLT-4 = tested on: MOLT-4
Malme-3M = tested on: Malme-3M
NCI-H226 = tested on: NCI-H226
NCI-H23 = tested on: NCI-H23
NCI-H460 = tested on: NCI-H460
NCI-H522 = tested on: NCI-H522
NCI/ADR-RES = tested on: NCI/ADR-RES
OVCAR-3 = tested on: OVCAR-3
OVCAR-4 = tested on: OVCAR-4
OVCAR-5 = tested on: OVCAR-5
OVCAR-8 = tested on: OVCAR-8
PC-3 = tested on: PC-3
RPMI-8226 = tested on: RPMI-8226
RXF 393 = tested on: RXF 393
SF-268 = tested on: SF-268
SF-295 = tested on: SF-295
SF-539 = tested on: SF-539
SK-MEL-28 = tested on: SK-MEL-28
SK-MEL-2 = tested on: SK-MEL-2
SK-MEL-5 = tested on: SK-MEL-5
SK-OV-3 = tested on: SK-OV-3
SN12C = tested on: SN12C
SNB-19 = tested on: SNB-19
SNB-75 = tested on: SNB-75
SR = tested on: SR
SW-620 = tested on: SW-620
T47D = tested on: T47D
TK-10 = tested on: TK-10
U-251 = tested on: U-251
UACC-257 = tested on: UACC-257
UACC-62 = tested on: UACC-62
UO-31 = tested on: UO-31
IGROV-1 = tested on: IGROV-1

O=C(CCCCCCCCC(=O)N1C(=O)CC(=O)N(c2ccc(Cl)cc2)C1=S)N1C(=O)CC(=O)N(c2ccc(Cl)cc2)C1=S
GI50 (786-0): 67.9 µM (inactive)
GI50 (A498): > 100 µM (inactive)
GI50 (A549): 34.2 µM (inactive)
GI50 (ACHN): 35.4 µM (inactive)
GI50 (BT-549): 67 µM (inactive)
GI50 (CAKI-1): > 100 µM (inactive)
GI50 (CCRF-CEM): 30.9 µM (inactive)
GI50 (COLO 205): 32.9 µM (inactive)
GI50 (DU-145): > 100 µM (inactive)
GI50 (EKVX): 47.4 µM (inactive)
GI50 (HCC 2998): 38.9 µM (inactive)
GI50 (HCT-116): 48.5 µM (inactive)
GI50 (HCT-15): 35.6 µM
GI50 (HOP-62): 80.9 µM (inactive)
GI50 (HOP-92): > 100 µM (inactive)
GI50 (HT-29): 73.5 µM (inactive)
GI50 (Hs-578T): > 100 µM (inactive)
GI50 (K562): 17.5 µM (inactive)
GI50 (KM12): 27.4 µM (inactive)
GI50 (LOX IMVI): 54.8 µM (inactive)
GI50 (M14): 38.5 µM (inactive)
GI50 (MCF7): 37.8 µM (inactive)
GI50 (MDA-MB-231): 70.8 µM (inactive)
GI50 (MDA-MB-435): 58.1 µM (inactive)
GI50 (MDA-N): 38.6 µM (inactive)
GI50 (MOLT-4): 19.8 µM (inactive)
GI50 (Malme-3M): > 100 µM (inactive)
GI50 (NCI-H226): > 100 µM (inactive)
GI50 (NCI-H23): 58.5 µM (inactive)
GI50 (NCI-H460): 29.6 µM (inactive)
GI50 (NCI-H522): 29 µM (inactive)
GI50 (NCI/ADR-RES): 24.5 µM (inactive)
GI50 (OVCAR-3): 51.3 µM (inactive)
GI50 (OVCAR-4): 41.6 µM (inactive)
GI50 (OVCAR-5): > 100 µM (inactive)
GI50 (OVCAR-8): 63.5 µM (inactive)
GI50 (PC-3): 57.1 µM (inactive)
GI50 (RPMI-8226): 30.6 µM (inactive)
GI50 (RXF 393): > 100 µM (inactive)
GI50 (SF-268): > 100 µM (inactive)
GI50 (SF-295): 33 µM (inactive)
GI50 (SF-539): > 100 µM (inactive)
GI50 (SK-MEL-28): 70.3 µM (inactive)
GI50 (SK-MEL-2): 49.1 µM (inactive)
GI50 (SK-MEL-5): 29.9 µM (inactive)
GI50 (SK-OV-3): 73.3 µM (inactive)
GI50 (SN12C): > 100 µM (inactive)
GI50 (SNB-19): 74.1 µM (inactive)
GI50 (SNB-75): > 100 µM (inactive)
GI50 (SR): 8.93 µM (inactive)
GI50 (SW-620): > 100 µM (inactive)
GI50 (T47D): 33.3 µM (inactive)
GI50 (TK-10): > 100 µM (inactive)
GI50 (U-251): > 100 µM (inactive)
GI50 (UACC-257): > 100 µM (inactive)
GI50 (UACC-62): 15.5 µM (inactive)
GI50 (UO-31): 35.7 µM (inactive)

Cc1nc2ccccc2cc1C[N+]12CN3CN(CN(C3)C1)C2
GI50 (786-0): 11.5 µM (inactive)
GI50 (A498): 22.8 µM (inactive)
GI50 (A549): 30.8 µM (inactive)
GI50 (ACHN): 17.1 µM (inactive)
GI50 (BT-549): 19.3 µM (inactive)
GI50 (CAKI-1): 27.5 µM (inactive)
GI50 (CCRF-CEM): 0.962 µM (active)
GI50 (COLO 205): 14.1 µM (inactive)
GI50 (DU-145): 26.2 µM (inactive)
GI50 (EKVX): 23.3 µM (inactive)
GI50 (HCC 2998): 17.1 µM (inactive)
GI50 (HCT-116): 5.21 µM (inactive)
GI50 (HCT-15): 15.2 µM
GI50 (HOP-62): 24.5 µM (inactive)
GI50 (HOP-92): 45.2 µM (inactive)
GI50 (HT-29): 15.7 µM (inactive)
GI50 (Hs-578T): 35.6 µM (inactive)
GI50 (IGROV-1): 31.4 µM (inactive)
GI50 (K562): 29.2 µM (inactive)
GI50 (KM12): 20.9 µM (inactive)
GI50 (LOX IMVI): 14.7 µM (inactive)
GI50 (M14): 18.5 µM (inactive)
GI50 (MCF7): 4.29 µM (inactive)
GI50 (MDA-MB-231): 16.4 µM (inactive)
GI50 (MDA-MB-435): 22.2 µM (inactive)
GI50 (MDA-N): 21.8 µM (inactive)
GI50 (MOLT-4): 34 µM (inactive)
GI50 (Malme-3M): 17.3 µM (inactive)
GI50 (NCI-H226): 23.6 µM (inactive)
GI50 (NCI-H23): 17.5 µM (inactive)
GI50 (NCI-H460): 18.2 µM (inactive)
GI50 (NCI-H522): 18.9 µM (inactive)
GI50 (NCI/ADR-RES): 22.4 µM (inactive)
GI50 (OVCAR-3): 28.1 µM (inactive)
GI50 (OVCAR-4): 22.3 µM (inactive)
GI50 (OVCAR-5): 23.8 µM (inactive)
GI50 (OVCAR-8): 30.3 µM (inactive)
GI50 (PC-3): 10.8 µM (inactive)
GI50 (RPMI-8226): 3.4 µM (inactive)
GI50 (RXF 393): 16.6 µM (inactive)
GI50 (SF-268): 22.7 µM (inactive)
GI50 (SF-295): 22.9 µM (inactive)
GI50 (SF-539): 14.2 µM (inactive)
GI50 (SK-MEL-28): 18.7 µM (inactive)
GI50 (SK-MEL-2): 18.6 µM (inactive)
GI50 (SK-MEL-5): 18.4 µM (inactive)
GI50 (SK-OV-3): 32.7 µM (inactive)
GI50 (SN12C): 18 µM (inactive)
GI50 (SNB-19): 23.8 µM (inactive)
GI50 (SNB-75): 17.9 µM (inactive)
GI50 (SR): 19 µM (inactive)
GI50 (SW-620): 5.35 µM (inactive)
GI50 (T47D): 18.7 µM (inactive)
GI50 (TK-10): 24.9 µM (inactive)
GI50 (U-251): 12.1 µM (inactive)
GI50 (UACC-257): 18.4 µM (inactive)
GI50 (UACC-62): 17.2 µM (inactive)
GI50 (UO-31): 23.6 µM (inactive)
